According to patent US20250230193A1, “CYCLIC COMPOUND HAVING SELECTIVE KRAS INHIBITORY EFFECT ON HRAS AND NRAS” (CHUGAI SEIYAKU KABUSHIKI KAISHA, priority 2022, published 2025):
Where a SMILES comes first, the peptide text is derived from it. Bridges are numbered along the chain shown (N, C = ends). [ ]: non-standard residue; d: D form. The star is where a group is joined. hPhe(3-Cl-4-CF3) = N[C@@H](CCc1ccc(C(F)(F)F)c(Cl)c1)C(=O)O; NPrPhe(4-CF3) = CCCN[C@@H](Cc1ccc(C(F)(F)F)cc1)C(=O)O; Abu(4,4,4-F3) = N[C@@H](CC(F)(F)F)C(=O)O; Morpholine(3S-CO) = O=C(O)[C@@H]1COCCN1; Pip(4,4-F2) = O=C(O)[C@@H]1CC(F)(F)CCN1; NMeGly(cPent) = CN[C@H](C(=O)O)C1CCCC1; Gly(cBu) = N[C@H](C(=O)O)C1CCC1; NMeD = CN[C@@H](CC(=O)O)C(=O)O; NMeL = CN[C@@H](CC(C)C)C(=O)O; hPip = O=C(O)[C@@H]1CCCCCN1; Pip = O=C(O)[C@@H]1CCCCN1; Morpholide = C1CN(*)CCO1; NMeA = CN[C@@H](C)C(=O)O; Ac5c = NC1(C(=O)O)CCCC1; Aze = O=C(O)[C@@H]1CCN1; Abu = CC[C@H](N)C(=O)O; NPrGly = CCCNCC(=O)O; NEtG = CCNCC(=O)O; Sar = CNCC(=O)O

Key:
[1] = target: GDP-bound NRAS wild-type protein (Homo sapiens, UniProt P01111); assay: Binding to NRAS by surface plasmon resonance (SPR), Single Cycle Kinetics; conditions: KD ratio NRAS/KRAS, SPR
Sequence of GDP-bound NRAS wild-type protein (P01111 whole entry): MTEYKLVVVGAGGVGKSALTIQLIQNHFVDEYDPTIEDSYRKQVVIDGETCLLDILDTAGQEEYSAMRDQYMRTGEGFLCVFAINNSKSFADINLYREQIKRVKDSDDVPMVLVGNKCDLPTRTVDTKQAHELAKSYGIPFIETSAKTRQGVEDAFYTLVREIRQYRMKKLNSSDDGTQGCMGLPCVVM

[2] = target: GDP-bound HRAS wild-type protein (Homo sapiens, UniProt P01112); assay: Binding to HRAS by surface plasmon resonance (SPR), Single Cycle Kinetics; conditions: KD ratio HRAS/KRAS, SPR
Sequence of GDP-bound HRAS wild-type protein (P01112 whole entry): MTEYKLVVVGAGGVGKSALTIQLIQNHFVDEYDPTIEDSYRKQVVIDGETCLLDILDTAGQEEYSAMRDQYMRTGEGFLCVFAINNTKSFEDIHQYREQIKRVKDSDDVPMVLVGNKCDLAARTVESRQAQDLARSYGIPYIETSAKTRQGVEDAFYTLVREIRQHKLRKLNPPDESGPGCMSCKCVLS

## CCCN1C(=O)[C@@H]2CCN2C(=O)[C@H](C)N(C)C(=O)[C@H]([C@@H](C)CC)NC(=O)[C@H](CC(C)C)N(C)C(=O)C[C@@H](C(=O)N2CCOCC2)N(C)C(=O)[C@H](C2CCCC2)N(C)C(=O)C2(CCCC2)NC(=O)[C@@H]2CCCCN2C(=O)[C@H](CCc2ccc(C(F)(F)F)c(Cl)c2)NC(=O)CN(C)C(=O)[C@@H]1Cc1ccc(C(F)(F)F)cc1 [PP0284] ([NMeL]I[NMeA][Aze][NPrPhe(4-CF3)][Sar][hPhe(3-Cl-4-CF3)][Pip][Ac5c][NMeGly(cPent)][NMeD]-Morpholide; lactam N-11)
[1]
  NRAS/KRAS (ratio of KD for GDP-bound NRAS wild-type to KD for KRAS): C (A compound having a KD ratio of 0.1 or more and less than 3 is denoted as C)
[2]
  HRAS/KRAS (ratio of KD for GDP-bound HRAS wild-type to KD for KRAS): B (a compound having 3 or more and less than 10 is denoted as B)

## CCCN1C(=O)[C@@H]2CCN2C(=O)[C@H](C)N(C)C(=O)[C@H]([C@@H](C)CC)NC(=O)[C@H](CC(C)C)N(C)C(=O)C[C@@H](C(=O)N2CCOCC2)N(C)C(=O)[C@H](C2CCCC2)N(C)C(=O)C2(CCCC2)NC(=O)[C@@H]2CC(F)(F)CCN2C(=O)[C@H](CCc2ccc(C(F)(F)F)c(Cl)c2)NC(=O)CN(C)C(=O)[C@@H]1Cc1ccc(C(F)(F)F)cc1 [PP0285] ([NMeL]I[NMeA][Aze][NPrPhe(4-CF3)][Sar][hPhe(3-Cl-4-CF3)][Pip(4,4-F2)][Ac5c][NMeGly(cPent)][NMeD]-Morpholide; lactam N-11)
[1]
  NRAS/KRAS (ratio of KD for GDP-bound NRAS wild-type to KD for KRAS): C (A compound having a KD ratio of 0.1 or more and less than 3 is denoted as C)
[2]
  HRAS/KRAS (ratio of KD for GDP-bound HRAS wild-type to KD for KRAS): B (a compound having 3 or more and less than 10 is denoted as B)

## CCCN1C(=O)[C@@H]2CCN2C(=O)[C@H](C)N(C)C(=O)[C@H]([C@@H](C)CC)NC(=O)[C@H](CC(C)C)N(C)C(=O)C[C@@H](C(=O)N2CCOCC2)N(C)C(=O)[C@H](C2CCCC2)N(C)C(=O)C2(CCCC2)NC(=O)[C@@H]2COCCN2C(=O)[C@H](CCc2ccc(C(F)(F)F)c(Cl)c2)NC(=O)CN(C)C(=O)[C@@H]1Cc1ccc(C(F)(F)F)cc1 [PP0286] ([NMeL]I[NMeA][Aze][NPrPhe(4-CF3)][Sar][hPhe(3-Cl-4-CF3)][Morpholine(3S-CO)][Ac5c][NMeGly(cPent)][NMeD]-Morpholide; lactam N-11)
[1]
  NRAS/KRAS (ratio of KD for GDP-bound NRAS wild-type to KD for KRAS): C (A compound having a KD ratio of 0.1 or more and less than 3 is denoted as C)
[2]
  HRAS/KRAS (ratio of KD for GDP-bound HRAS wild-type to KD for KRAS): B (a compound having 3 or more and less than 10 is denoted as B)

## CCCN1C(=O)[C@@H]2CCN2C(=O)[C@H](C)N(C)C(=O)[C@H]([C@@H](C)CC)NC(=O)[C@H](CC(C)C)N(C)C(=O)C[C@@H](C(=O)N2CCOCC2)N(C)C(=O)[C@H](C2CCCC2)N(C)C(=O)C2(CCCC2)NC(=O)CN(C)C(=O)[C@H](CCc2ccc(C(F)(F)F)c(Cl)c2)NC(=O)CN(C)C(=O)[C@@H]1Cc1ccc(C(F)(F)F)cc1 [PP0287] ([NMeL]I[NMeA][Aze][NPrPhe(4-CF3)][Sar][hPhe(3-Cl-4-CF3)][Sar][Ac5c][NMeGly(cPent)][NMeD]-Morpholide; lactam N-11)
[1]
  NRAS/KRAS (ratio of KD for GDP-bound NRAS wild-type to KD for KRAS): C (A compound having a KD ratio of 0.1 or more and less than 3 is denoted as C)
[2]
  HRAS/KRAS (ratio of KD for GDP-bound HRAS wild-type to KD for KRAS): C (A compound having a KD ratio of 0.1 or more and less than 3 is denoted as C)

## CCCN1CC(=O)NC2(CCCC2)C(=O)N(C)[C@@H](C2CCCC2)C(=O)N(C)[C@H](C(=O)N2CCOCC2)CC(=O)N(C)[C@@H](CC(C)C)C(=O)N[C@@H]([C@@H](C)CC)C(=O)N(C)[C@@H](C)C(=O)N2CC[C@H]2C(=O)N(CCC)[C@@H](Cc2ccc(C(F)(F)F)cc2)C(=O)N(C)CC(=O)N[C@@H](CCc2ccc(C(F)(F)F)c(Cl)c2)C1=O [PP0288] ([NMeL]I[NMeA][Aze][NPrPhe(4-CF3)][Sar][hPhe(3-Cl-4-CF3)][NPrGly][Ac5c][NMeGly(cPent)][NMeD]-Morpholide; lactam N-11)
[1]
  NRAS/KRAS (ratio of KD for GDP-bound NRAS wild-type to KD for KRAS): C (A compound having a KD ratio of 0.1 or more and less than 3 is denoted as C)
[2]
  HRAS/KRAS (ratio of KD for GDP-bound HRAS wild-type to KD for KRAS): B (a compound having 3 or more and less than 10 is denoted as B)

## CCCN1C(=O)CN(C)C(=O)CN(CC)C(=O)[C@H]([C@@H](C)CC)NC(=O)[C@@H]2CCCCCN2C(=O)C[C@@H](C(=O)N2CCOCC2)N(C)C(=O)[C@H](C2CCCC2)N(C)C(=O)C2(CCCC2)NC(=O)[C@@H]2CCCN2C(=O)[C@H](CCc2ccc(C(F)(F)F)c(Cl)c2)NC(=O)CN(C)C(=O)[C@@H]1Cc1ccc(C(F)(F)F)cc1 [PP0289] ([hPip]I[NEtG][Sar][NPrPhe(4-CF3)][Sar][hPhe(3-Cl-4-CF3)]P[Ac5c][NMeGly(cPent)][NMeD]-Morpholide; lactam N-11)
[1]
  NRAS/KRAS (ratio of KD for GDP-bound NRAS wild-type to KD for KRAS): B (a compound having 3 or more and less than 10 is denoted as B)
[2]
  HRAS/KRAS (ratio of KD for GDP-bound HRAS wild-type to KD for KRAS): B (a compound having 3 or more and less than 10 is denoted as B)

## CCCN1C(=O)CN(C)C(=O)CN(CC)C(=O)[C@H](CC)NC(=O)[C@H](CC(C)C)N(C)C(=O)C[C@@H](C(=O)N2CCOCC2)N(C)C(=O)[C@H](C2CCCC2)N(C)C(=O)C2(CCCC2)NC(=O)[C@@H]2CCCN2C(=O)[C@H](CCc2ccc(C(F)(F)F)c(Cl)c2)NC(=O)CN(C)C(=O)[C@@H]1Cc1ccc(C(F)(F)F)cc1 [PP0290] ([NMeL][Abu][NEtG][Sar][NPrPhe(4-CF3)][Sar][hPhe(3-Cl-4-CF3)]P[Ac5c][NMeGly(cPent)][NMeD]-Morpholide; lactam N-11)
[1]
  NRAS/KRAS (ratio of KD for GDP-bound NRAS wild-type to KD for KRAS): B (a compound having 3 or more and less than 10 is denoted as B)
[2]
  HRAS/KRAS (ratio of KD for GDP-bound HRAS wild-type to KD for KRAS): C (A compound having a KD ratio of 0.1 or more and less than 3 is denoted as C)

## CCCN1C(=O)CN(C)C(=O)CN(CC)C(=O)[C@H](CC(F)(F)F)NC(=O)[C@H](CC(C)C)N(C)C(=O)C[C@@H](C(=O)N2CCOCC2)N(C)C(=O)[C@H](C2CCCC2)N(C)C(=O)C2(CCCC2)NC(=O)[C@@H]2CCCN2C(=O)[C@H](CCc2ccc(C(F)(F)F)c(Cl)c2)NC(=O)CN(C)C(=O)[C@@H]1Cc1ccc(C(F)(F)F)cc1 [PP0291] ([NMeL][Abu(4,4,4-F3)][NEtG][Sar][NPrPhe(4-CF3)][Sar][hPhe(3-Cl-4-CF3)]P[Ac5c][NMeGly(cPent)][NMeD]-Morpholide; lactam N-11)
[1]
  NRAS/KRAS (ratio of KD for GDP-bound NRAS wild-type to KD for KRAS): B (a compound having 3 or more and less than 10 is denoted as B)
[2]
  HRAS/KRAS (ratio of KD for GDP-bound HRAS wild-type to KD for KRAS): B (a compound having 3 or more and less than 10 is denoted as B)

## CCCN1C(=O)CN(C)C(=O)CN(CC)C(=O)[C@H](C2CCC2)NC(=O)[C@H](CC(C)C)N(C)C(=O)C[C@@H](C(=O)N2CCOCC2)N(C)C(=O)[C@H](C2CCCC2)N(C)C(=O)C2(CCCC2)NC(=O)[C@@H]2CCCN2C(=O)[C@H](CCc2ccc(C(F)(F)F)c(Cl)c2)NC(=O)CN(C)C(=O)[C@@H]1Cc1ccc(C(F)(F)F)cc1 [PP0292] ([NMeL][Gly(cBu)][NEtG][Sar][NPrPhe(4-CF3)][Sar][hPhe(3-Cl-4-CF3)]P[Ac5c][NMeGly(cPent)][NMeD]-Morpholide; lactam N-11)
[1]
  NRAS/KRAS (ratio of KD for GDP-bound NRAS wild-type to KD for KRAS): B (a compound having 3 or more and less than 10 is denoted as B)
[2]
  HRAS/KRAS (ratio of KD for GDP-bound HRAS wild-type to KD for KRAS): C (A compound having a KD ratio of 0.1 or more and less than 3 is denoted as C)
